Test results as given in US5843886A, “Method of treating or preventing Type 1 diabetes by oral administration of insulin” (Autoimmune, Inc., priority 1995, dated 1998).
Values joined by “and” are separate entries in the source; they are usually repeats but may differ in a detail not shown here. Equal values may be shown once. “Also recorded” adds a separate entry of the source.

How the values were obtained:
Format in all cases: in vivo, mouse
[1] = tested on: NOD mice; test: Glucose post oral insulin in fasting 7 week NOD mice; conditions: for blood glucose after feeding: measured over 24 hours
Method: In order to determine whether any endocrinologic (i.e. direct lowering of blood sugar) effects occurred following the feeding of insulin, 7 week old NOD mice (5 mice per group) were fed 1 mg of porcine insulin or 1 mg of myelin basic protein (obtained from Pel Freez, Rogers, AR) as a control protein. Blood glucose was then measured over the next 24 hour period. As a positive control, a separate group of animals were injected subcutaneously with 20 micrograms of Porcine insulin. All animals were kept in the fasting state.

[2] = tested on: NOD mice; test: Insulitis in insulin-fed NOD mice (preliminary experiments, data not shown); conditions: fed 1 mg, compared with PBS-fed NOD mice
Text: Therefore, oral administration of insulin to NOD mice appeared to be affecting the infiltration of immune system cells into the pancreas and thus halting disease progression by preserving beta cell function.

[3] = tested on: NOD mice; test: Treatment of initial stages of diabetes in hyperglycemic NOD mice (Example 5); conditions: 0 to 1 mg, oral and aerosol, start at weeks 12-20 of age
Method: Insulin (0 to 1 mg as in Examples 1 and 2) will be administered to NOD mice which are suffering from hyperglycemia in an oral and aerosol form. The treatments will begin by weeks 12-20 of age, by which the serum glucose levels are at hyperglycemic concentrations in a certain percentage of animals prior to onset of diabetes.

[4] = tested on: NOD mice; test: Spontaneous diabetes in NOD mice after oral feeding
Text: NOD (non-obese diabetic mice) were obtained from Taconic Laboratories (Germantown, Mass.) at 4 weeks of age. There were a total of 30 animals in each of the groups mentioned below at the beginning of the experiment. At 41/2 weeks of age, animals were orally administered Porcine insulin (Novo Laboratories, Danbury, Conn.). Each animal received two treatments orally twice a week until 9 weeks of age. The mice were fed either saline (control) or 10 micrograms, 100 micrograms, or 1 milligram of Porcine insulin. The animals were fed (gavaged) with an 18 gauge ball-point needle (Popper and Sons, Inc., New Hyde Park, N.Y.). Beginning at 10 weeks the animals were then fed once a week for a total of 33 weeks. Beginning at 12 weeks the urine was tested weekly for the presence of glucose using Glucosuria test tape (Eli Lilly, Indianapolis, Ind.). If an animal tested 3+ or higher on the glucose urine test, a serum sample was taken and blood glucose measured using a glucose analyzer (Beckman). If the blood glucose was 220 or higher, the animals were classified as diabetic and then sacrificed. An identical experiment to Example 1 was performed in which NOD mice (14-17 per group) were fed one homogenized pancreas derived from Lewis rats in 0.5 mls PBS. […] Nonetheless, the effect is not as dramatic and complete as that seen in the animals fed insulin.

[5] = tested on: NOD mice; test: Aerosol administration of insulin on diabetes in NOD mice (Example 4); conditions: 0 to 1 mg in aerosol form by nebulizer
Method: Insulin (0 to 1 mg as in Examples 1 and 2) will be administered to NOD mice as described above in Examples 1 and 2 except in aerosol form by nebulizer.

[6] = 20 micrograms injected subcutaneously, fasting 7 week old mice
[7] = fed 1 mg orally, fasting 7 week old mice

Substance	decrease in blood glucose level [1, 6]	period over which the glucose decrease persisted [1, 6] [h]	endocrinologic (metabolic) effects ([1]; fed 1 mg orally)	blood glucose after feeding [1, 7]	inflammatory immune system cells surrounding the pancreas (insulitis) [2]	beta cell function [3]	serum glucose concentrations [3]	incidence of diabetes ([4]; all oral doses tested (10 micrograms, 100 micrograms, 1 mg))	development of diabetes ([4]; fed 1 mg orally (gavage), twice a week until 9 weeks of age, then once a week, diabetic = blood glucose 220 or higher)	blood sugar on 10 representative animals ([4]; fed 1 mg, individual non-diabetic animals) [mg/dL]	development of diabetes ([4]; fed 10 micrograms orally, same schedule)	blood sugar in animals which developed diabetes ([4]; fed 10 micrograms, individual animals)	development of diabetes ([4]; fed 100 micrograms orally, same schedule)	blood sugar in animals that became diabetic ([4]; fed 100 micrograms, individual animals)	treated animals that failed to develop diabetes ([4]; highest oral dose (1 mg)) [%]	prevention of the manifestation of symptoms (hyperglycemia) of Type 1 diabetes [5]
Porcine insulin	approximately 80 mg %	4	no endocrinologic (metabolic) effects	no drop in the blood glucose	fewer inflammatory immune system cells surrounding the pancreas	preservation of beta cell function	reduction in serum glucose concentrations to near normal levels	lower incidence of diabetes; also recorded: reduced the numbers of these mice which subsequently went on to develop diabetes	none of the mice went on to develop diabetes; also recorded: no diabetes developed; also recorded: None of the animals developed diabetes	130	diabetes developed	330 mg/dL and 420 mg/dL and 520 mg/dL	diabetes developed	500 mg/dL and 290 mg/dL and 600 mg/dL and 450 mg/dL	100	effective in preventing the manifestation of symptoms
myelin basic protein				no drop in the blood glucose												
